Assay results from ChEMBL document CHEMBL1146163 (Bioorg Med Chem Lett, 2006).
Active and inactive are the calls of the source. The calls are words filed in the database; no cut-off is given here.

Assays:
[1] = tested on: Mus musculus; assay: Reduction of glucose level in db/db mouse at 30 mg/kg, po after 7 days relative to control; assay type: functional; design: scale not given: the % may be the effect or the level left
[2] = tested on: Rattus norvegicus; assay: Effect on glucose normalization in po dosed ZDF rat after 7 days; assay type: functional; conditions: 168 h, read-out: MED
[3] = tested on: Rattus norvegicus; assay: Reduction of plasma triglyceride level in ZDF rat at 1 mg/kg, po after 7 days relative to control; assay type: functional; conditions: 168 h
[4] = Half life in F344 rat at 1 mg/kg, iv; assay type: ADME, organism-based; design: dose 1 mg/kg, route intravenous; conditions: in vivo
[5] = Volume of distribution in F344 rat at 1 mg/kg, iv; assay type: ADME, organism-based; design: dose 1 mg/kg, route intravenous; conditions: in vivo, read-out: Vdss
[6] = Clearance in F344 rat at 1 mg/kg, iv; assay type: ADME, organism-based; design: dose 1 mg/kg, route intravenous; conditions: in vivo
[7] = Tmax in F344 rat at 10 mg/kg, po; assay type: ADME, organism-based; design: dose 10 mg/kg, route oral; conditions: in vivo
[8] = Oral bioavailability in F344 rat at 10 mg/kg, po; assay type: ADME, organism-based; conditions: in vivo
[9] = Half life in Beagle dog at 1 mg/kg, iv; assay type: ADME, organism-based, Canis lupus familiaris; design: dose 1 mg/kg, route intravenous; conditions: in vivo
[10] = Volume of distribution in Beagle dog at 1 mg/kg, iv; assay type: ADME, organism-based, Canis lupus familiaris; design: dose 1 mg/kg, route intravenous; conditions: in vivo, read-out: Vdss
[11] = Clearance in Beagle dog at 1 mg/kg, iv; assay type: ADME, organism-based, Canis lupus familiaris; design: dose 1 mg/kg, route intravenous; conditions: in vivo
[12] = Tmax in Beagle dog at 10 mg/kg, po; assay type: ADME, organism-based, Canis lupus familiaris; design: dose 10 mg/kg, route oral; conditions: in vivo
[13] = Oral bioavailability in Beagle dog at 10 mg/kg, po; assay type: ADME, organism-based, Canis lupus familiaris; conditions: in vivo
[14] = target: T1, Peroxisome proliferator-activated receptor alpha (Homo sapiens, UniProt Q07869); assay: (§1) Displacement of tritium labeled ligand from human PPARalpha by SPA assay
T1 sequence (Q07869 whole entry): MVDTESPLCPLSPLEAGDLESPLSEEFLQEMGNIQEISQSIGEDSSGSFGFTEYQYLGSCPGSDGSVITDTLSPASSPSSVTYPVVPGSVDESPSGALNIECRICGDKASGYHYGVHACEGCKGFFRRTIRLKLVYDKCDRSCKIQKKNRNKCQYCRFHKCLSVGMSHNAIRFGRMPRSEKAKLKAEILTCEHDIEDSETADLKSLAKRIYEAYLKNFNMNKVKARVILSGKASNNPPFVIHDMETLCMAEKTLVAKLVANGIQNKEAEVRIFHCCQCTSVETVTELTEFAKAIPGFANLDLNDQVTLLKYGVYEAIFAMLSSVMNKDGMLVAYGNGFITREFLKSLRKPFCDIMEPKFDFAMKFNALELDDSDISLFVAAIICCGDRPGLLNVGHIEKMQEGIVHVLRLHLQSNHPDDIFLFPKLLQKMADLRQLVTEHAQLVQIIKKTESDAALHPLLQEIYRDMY

[15] = target: T2, Peroxisome proliferator-activated receptor alpha (Homo sapiens) (UniProt Q07869); assay: Activity at human PPARalpha expressed in CV1 cells using GAL4 chimeric system relative to control; assay type: cell-based; conditions: CV-1
T2 sequence (whole entry): T1 sequence (Q07869 whole entry)

[16] = target: T3, Peroxisome proliferator-activated receptor gamma (Homo sapiens, UniProt P37231)
T3 sequence (P37231 whole entry): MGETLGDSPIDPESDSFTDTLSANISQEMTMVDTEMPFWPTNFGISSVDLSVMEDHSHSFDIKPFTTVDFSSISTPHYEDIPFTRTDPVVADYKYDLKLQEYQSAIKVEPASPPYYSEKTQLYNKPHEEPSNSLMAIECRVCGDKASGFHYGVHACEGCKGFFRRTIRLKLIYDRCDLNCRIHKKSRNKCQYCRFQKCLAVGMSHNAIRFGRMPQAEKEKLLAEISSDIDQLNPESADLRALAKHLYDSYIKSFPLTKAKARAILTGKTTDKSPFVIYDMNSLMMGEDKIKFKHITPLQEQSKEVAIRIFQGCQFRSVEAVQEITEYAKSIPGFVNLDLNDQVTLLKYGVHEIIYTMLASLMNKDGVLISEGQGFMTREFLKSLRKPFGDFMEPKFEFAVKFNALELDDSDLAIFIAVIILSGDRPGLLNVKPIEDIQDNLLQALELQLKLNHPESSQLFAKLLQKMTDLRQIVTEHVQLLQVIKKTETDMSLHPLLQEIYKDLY
Description: Displacement of tritium labeled ligand from human PPARgamma by SPA assay

[17] = target: T4, Peroxisome proliferator-activated receptor delta (Homo sapiens, UniProt Q03181); assay: Activity at PPARdelta
T4 sequence (Q03181 whole entry): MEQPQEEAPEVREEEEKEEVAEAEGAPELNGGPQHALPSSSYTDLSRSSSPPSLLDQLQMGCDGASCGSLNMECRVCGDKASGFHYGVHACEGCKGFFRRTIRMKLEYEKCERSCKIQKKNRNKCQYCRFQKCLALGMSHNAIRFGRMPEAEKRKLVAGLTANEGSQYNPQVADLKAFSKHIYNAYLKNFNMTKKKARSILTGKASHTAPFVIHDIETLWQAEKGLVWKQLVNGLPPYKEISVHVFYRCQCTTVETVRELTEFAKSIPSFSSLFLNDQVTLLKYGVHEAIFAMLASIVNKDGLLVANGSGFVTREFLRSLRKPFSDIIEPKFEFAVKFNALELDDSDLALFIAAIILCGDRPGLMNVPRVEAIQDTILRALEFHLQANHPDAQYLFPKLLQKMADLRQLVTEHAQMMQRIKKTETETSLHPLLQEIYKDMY

[18] = target: T2, Peroxisome proliferator-activated receptor alpha (Homo sapiens); assay: as §1
[19] = target: T5, Peroxisome proliferator-activated receptor delta (Homo sapiens) (UniProt Q03181); assay: Activity at human PPARdelta expressed in CV1 cells by cotransfection assay relative to control; assay type: cell-based; conditions: CV-1
T5 sequence (whole entry): T4 sequence (Q03181 whole entry)

[20] = tested on: Rattus norvegicus; assay: Reduction of glucose level in ZDF rat at 1 mg/kg, po after 7 days relative to control; assay type: functional; design: scale not given: the % may be the effect or the level left

Row | SMILES | Activity [1] | EC50 [14] | Efficacy [15] | EC50 [16] | IC50 [16] | also measured
1 | CCCOC(=O)N1CCc2c(OCCc3nc(-c4ccc(-c5ccccc5)cc4)oc3C)ccc(CCC(=O)[O-])c2C1.[Na+] | 41% |  |  |  |  | minimal effective dose [2]: 0.19 mg/kg; ED50 [3]: 0.24 mg/kg; half-life [4]: 5 h; Vd [5]: 0.59 L/kg; clearance [6]: 1.37 mL/min/kg; Tmax [7]: 1 h; bioavailability [8]: 35%; half-life [9]: 3.58 h; Vd [10]: 0.38 L/kg; clearance [11]: 1.24 mL/min/kg; Tmax [12]: 4 h; bioavailability [13]: 37%
2 | Cc1oc(-c2ccccc2)nc1CCOc1ccc(CCC(=O)O)c2c1CCN(C(=O)OCC(C)C)C2 | 27% | 1720 nM | 40% | 8 nM | 17 nM | IC50 [14]: 3420 nM; minimal effective dose [2]: 0.25 mg/kg
3 | Cc1oc(-c2ccc(-c3ccccc3)cc2)nc1CCOc1ccc(CCC(=O)O)c2c1CCN(C(=O)OCC(C)(C)C)C2 [listing 1 of 2 here] |  |  |  | 9 nM | 33 nM | 
4 | CN(CCOc1ccc(CC2SC(=O)NC2=O)cc1)c1ccccn1 (stereo not drawn) [ROSIGLITAZONE] | 29% |  |  |  |  | minimal effective dose [2]: 0.25 mg/kg
5 | CCCOC(=O)N1CCc2c(OCCc3nc(-c4ccc(-c5ccccc5)cc4)oc3C)ccc(CCC(=O)O)c2C1 [listing 1 of 2 here] |  | 2390 nM |  | 3 nM | 21 nM | EC50 [17]: 2750 nM
6 | CCCOC(=O)N1CCc2c(OCCc3nc(-c4ccccc4)oc3C)ccc(CCC(=O)O)c2C1 [listing 1 of 2 here] | 62% | 561 nM |  | 12 nM | 11 nM | IC50 [14]: 4680 nM
7 | CCCOC(=O)N1CCc2c(OCCc3nc(-c4ccc(-c5ccccc5)cc4)oc3C)ccc(CCC(=O)O)c2C1 [listing 2 of 2 here] |  |  | 27% |  |  | Activity [18]: inactive; Efficacy [19]: 36%
8 | Cc1c(C)c2c(c(C)c1O)CCC(C)(COc1ccc(CC3SC(=O)NC3=O)cc1)O2 (stereo not drawn) |  |  | 0% |  |  | Activity [18]: inactive
9 | Cc1oc(-c2ccc(-c3ccccc3)cc2)nc1CCOc1ccc(CCC(=O)O)c2c1CCN(C(=O)OCC(C)(C)C)C2 [listing 2 of 2 here] |  |  | 18% |  |  | Activity [18]: inactive; Efficacy [18]: < 20%
10 | CCCOC(=O)N1CCc2c(OCCc3nc(-c4ccccc4)oc3C)ccc(CCC(=O)[O-])c2C1.[Na+] |  |  |  |  |  | minimal effective dose [2]: 0.28 mg/kg
11 | C#CCOC(=O)N1CCc2c(OCCc3nc(-c4ccccc4)oc3C)ccc(CCC(=O)O)c2C1 | 37% | 2780 nM | 38% | 77 nM | 24 nM | IC50 [14]: 8400 nM; EC50 [17]: 3020 nM; Efficacy [19]: 65%
12 | CCCOC(=O)N1CCc2c(OCCc3nc(-c4ccccc4)oc3C)ccc(CCC(=O)O)c2C1 [listing 2 of 2 here] |  |  | 47% |  |  | 
13 | Cc1oc(-c2ccc(-c3ccccc3)cc2)nc1CCOc1ccc(CCC(=O)[O-])c2c1CCN(C(=O)OCC(C)(C)C)C2.[Na+] | 49% |  |  |  |  | Activity [20]: 23%
14 | Cc1oc(-c2ccc(-c3ccccc3)cc2)nc1CCOc1ccc(CCC(=O)O)c(CNC(=O)OC(C)C)c1 |  |  | 52% |  |  | 
15 | CC(C)(Oc1ccc(C(=O)c2ccc(Cl)cc2)cc1)C(=O)O [FENOFIBRIC ACID] |  | > 10000 nM | 75% |  |  | IC50 [14]: > 10000 nM
16 | Cc1oc(-c2ccccc2)nc1CCOc1ccc(C[C@H](Nc2ccccc2C(=O)c2ccccc2)C(=O)O)cc1 |  |  | 66% |  |  | 
